Data: US20150290201A1, “TREATMENT OF MUSCULAR DYSTROPHIES AND ASSOCIATED CONDITIONS BY ADMINISTRATION OF MONOAMINE OXIDASE INHIBITORS” (UNIVERSITA DEGLI STUDI DI PADOVA, priority 2011, published 2015)

Key:
[1] = tested on: MAO; experiment: MAO activity assay (Amplex Red/HRP, tyramine) on muscle mitochondrial extracts after in vivo treatment; conditions: Col6a1−/− mice, gastrocnemius, pargyline 50 mg/kg/day i.p. for 1 week
Experimental: Muscle cryosections were suspended in PBS and centrifuged at 500 g for 10 min at 4° C. The supernatant was centrifuged at 8000×g for 10 min at 4° C. and the resulting pellet was resuspended in PBS and stored on ice until use. Protein concentration was determined by the Bradford assay (Bio-Rad). MAO activity assay was based on the detection of hydrogen peroxide generated during substrate catabolism in a horseradish peroxidase (HRP) coupled reaction using 10-acetyl-3,7-dihydroxyphenoxazine (Amplex Red reagent, Molecular Probes). The mitochondrial protein extracts (40 mg) were incubated in PBS with 10 mM Amplex Red and 15 mg/ml HRP. […] The fluorescence intensity was recorded at 37° C. using a Perkin Elmer LS-50B fluorimeter at the 544/590 nm excitation/emission wavelengths. Parallel samples were run in the absence of a substrate to take into account the increase in fluorescence not due to MAO activity. […]

[2] = tested on: Col6a1^−/− mice; experiment: DHE staining for ROS detection in muscle cryosections of Col6a1−/− mice; format: in vivo; conditions: 6-month-old Col6a1−/− mice, pargyline 50 mg/kg/day i.p. 1 week
Experimental: (§1) Col6a1^−/− mice were backcrossed in the inbred C57BL/6J strain for eight generations as described (Irwin, W. A., et al., (2003) Nat. Genet., 35, 367-371), and data were obtained by comparing Col6a1^−/− mice with their wild-type littermates. Wild-type C57BL/10 mice and mdx (in the C57BL/10 background) were obtained from Charles River and Jackson Laboratories, respectively. Pargyline (50 mg/kg/days) or vehicle (phosphate-buffered saline, PBS) were administered by daily intraperitoneal (i.p.) injection for 7 days in 6-month-old Col6a1^−/− and C57BL/6J male mice or 5-week-old mdx and C57BL/10 male mice. During the treatment, mice were placed in separate cages with a running wheel. At the end of the treatment, mice were sacrificed and muscles were removed and stored in liquid nitrogen until use.
DHE is oxidized by ROS, forming ethidium bromide, which emits red fluorescence when intercalates with DNA (Benov, L., et al., (1998) Free Radic. Biol. Med., 25, 826-831). […] For the detection of the fluorescence, 568±25 nm excitation and 585 nm long-pass emission filter settings were used. Data were acquired and analyzed using Metamorph software (Universal Imaging). […]

[3] = tested on: Col6a1^−/− mice; experiment: Tm oxidation (DCB formation) by immunoelectrophoresis, Col6a1−/− mice; format: in vivo; conditions: Col6a1−/− diaphragm, pargyline 50 mg/kg/day i.p. 1 week
[4] = tested on: Col6a1^−/− mice; experiment: Pathological markers (TUNEL, IgG staining, Evans blue, myofiber CSA) in Col6a1−/− mice; format: in vivo; conditions: pargyline treatment
Experimental: as §1
(§2) Cross-sections (7 μm thick) were prepared and processed for hematoxylin and eosin (H&E) staining. For the morphometric analysis of myofiber cross sectional areas (CSAs), we counted approximately 2000 fibers per mouse for each muscle type by means of ImageJ software. At least three sections from each muscle were analyzed. TUNEL (terminal deoxynucleotidyl transferase-mediated dUTP nick end-labeling) was performed on paraffin-embedded sections (7 μm thick) using the ApopTag in situ apoptosis detection kit (Chemicon). Samples were stained with peroxidase diaminobenzidine to detect TUNEL-positive nuclei and counterstained with Hoechst 33258 to identify all nuclei, as described previously (Irwin, W. A., et al., (2003) Nat. Genet, 35, 367-371). The total number of nuclei and number of TUNEL-positive nuclei were determined in randomly selected fibers using a Zeiss Axioplan microscope equipped with a Leica DC 500 camera. Membrane permeability of skeletal muscle was directly visualized by immunohistochemical staining with IgG (Weller, B., et al., (1990) J. Neurol. Sci., 100, 9-13 and Blaauw, B., et al., (2008) Hum. Mol. Genet., 17, 3686-36%). Cryosections (10 μm thick) were incubated with anti-mouse fluorescein isothiocyanate-conjugated IgG, washed twice with PBS, mounted and visualized with an Olympus IMT-2 inverted microscope as previously described (Petronilli V., et al., (1999) Biophys. J., 76, 725-734) using excitation/emission cubes of 488/525±25 nm bandpass. Evans blue dye staining of muscles in vivo was performed by i.p. injection with 0.2 ml Evans blue (10 mg/ml in PBS; Sigma). Mice were sacrificed after 16-18 h and diaphragms were fixed with 4% paraformaldehyde overnight at 4° C. After fixation, the samples were observed by means of light microscopy.
Contractile impairment and high apoptosis rate are two specific features of skeletal muscles of Col6a1^−/− mice (Irwin, W. A., et al. (2003) Nat. Genet 35, 367-371). […] Occurrence of apoptosis was evaluated by TUNEL. […]

[5] = tested on: Col6a1^−/− mice; experiment: Muscle functional assessment (skinned fiber tension, gastrocnemius force, running wheel) in Col6a1−/− mice; format: in vivo
Experimental: as §1
Single myofibers were isolated from Col6a1^−/− gastrocnemius muscle, chemically skinned as described (Rossi, R., et al., (2001) Am. J. Physiol. Cell Physiol., 281, C585-0594) and tension was measured during maximal isometric activation (pCa=4.5, T=20° C., initial sarcomere length=2.75 μm). Force measurements were performed in the left and/or right gastrocnemius muscle of anesthetized mice by electrical stimulation through the sciatic nerve, as described previously (Blaauw, B., et al., (2008) Hum. Mol. Genet., 17, 3686-3696). Voluntary exercise was evaluated by placing a wheel in the cage. Before the treatment, mice were placed in separate cages with wheel to acclimatize, then the average distance covered by each mouse in 24 h during the treatment was measured using an automatic counter.
Biochemical and histological analyses were paralleled by functional assessment of the contractile performance of muscles in vivo and isolated muscle fibers in vitro. Single-skinned muscle fibers dissected from gastrocnemius muscle were maximally calcium-activated at optimal sarcomere length. […] After acclimatizing mice for 1 week to a wheel placed in their cage, the daily average distance was measured.

[6] = tested on: mdx mice; experiment: MAO-dependent ROS formation in muscles of mdx mice; format: in vivo; conditions: mdx-parg mice (n = 8)
Experimental: as §1
(§3) DHE is oxidized by ROS, forming ethidium bromide, which emits red fluorescence when intercalates with DNA (Benov, L., et al., (1998) Free Radic. Biol. Med., 25, 826-831). […] For the detection of the fluorescence, 568±25 nm excitation and 585 nm long-pass emission filter settings were used. Data were acquired and analyzed using Metamorph software (Universal Imaging).

[7] = tested on: Wild-type C57BL/10 mice; experiment: ROS formation in muscles of wild-type C57BL/10 mice; format: in vivo; conditions: WT-parg mice (n = 8); WT-veh = 100.0
Experimental: as §1, §3

[8] = tested on: mdx mice; experiment: Tm oxidation (DCB formation) by immunoelectrophoresis, mdx mice; format: in vivo; conditions: gastrocnemius and quadriceps, i.p. pargyline for 1 week
Experimental: as §1
Protein extracts were prepared as described (Canton, M., et al., (2006) Eur. Heart J., 27, 875-881). Immunoblotting were stained with the following antibodies: anti-Tm CH1 clone (Sigma), anti-MAO-B D-16 and anti-MAO-A H-70 clone (Santa Cruz). […] Quantitation of Tm oxidation was performed by densitometric analysis of the bands obtained under non-reducing conditions (ImageJ software). […] Data were expressed as percentage of DCB relative to vehicle-treated wild-type mice. […]

[9] = tested on: mdx mice; experiment: Pathological markers (myofiber CSA, H&E inflammation, TUNEL) in mdx mice; format: in vivo; conditions: pargyline treatment
Experimental: as §1
as §2, with “Cryosections (10 μm thick) were incubated with anti-mouse fluorescein isothiocyanate-conjugated IgG, washed twice with PBS, mounted and visualized with an Olympus IMT-2 inverted microscope as previously described (Petronilli V., et al., (1999) Biophys. J., 76, 725-734) using excitation/emission cubes of 488/525±25 nm bandpass. Evans blue dye staining of muscles in vivo was performed by i.p. injection with 0.2 ml Evans blue (10 mg/ml in PBS; Sigma). Mice were sacrificed after 16-18 h and diaphragms were fixed with 4% paraformaldehyde overnight at 4° C. After fixation, the samples were observed by means of light microscopy.” left out

[10] = tested on: Col6a1^−/− myoblasts; experiment: Mitochondrial ROS production (Mitotracker Red) in myoblasts under oxidative stress; format: cell-based, mice; conditions: Col6a1−/− diaphragm myoblasts, 100 uM pargyline; inducers 100 uM H2O2, 5 uM arachidonic acid, 0.2 uM antimycin
Experimental: Myoblasts obtained from the diaphragm of Col6a1^−/− and Col6a1^+/+ mice were loaded with Mitotracker Red (MTR, 20 nM) to assess mitochondrial ROS production. After the first acquisition (with a fluorescence microscope), different inducers of oxidative stress (A: 100 uM H2O2, B: 5 uM arachidonic acid, C: 0.2 uM antimycin) were added and frames were collected at different intervals in the absence (filled square) and in the presence (filled triangles) of a MAO inhibitor (100 uM pargyline).
The extent of ROS accumulation in myoblasts obtained from diaphragm of Col6a1^−/− and Col6a1^+/+ mice was assessed. […] Remarkably, MAO inhibition reduced the presence of ROS in Col6a1^−/− myoblasts underlying the relevance of ROS production due to MAO activity.

## C#CCN(C)Cc1ccccc1 [Pargyline, N-Benzyl-N-methylprop-2-yn-1-amine]
[1]
  MAO activity in skeletal muscle after treatment: abolished
[2]
  abnormal production of ROS (DHE fluorescence) in muscles: significantly decreased
[3]
  DCB content (Tm oxidation): significantly reduced
[4]; Col6a1−/− diaphragm
  damaged myofibers stained by Evans blue: largely reduced
  number of damaged fibers positive to IgG immunohistochemical staining: significantly decreased
[4]; Col6a1−/− mice, diaphragm sections, vehicle 62.4±2.3, wild-type 2.7±1.2
  number of TUNEL-positive nuclei: 6.9±1 nuclei/mm^2
[4]; Col6a1−/− tibialis anterior and diaphragm
  myofiber cross-sectional area variability (different sizes, prevalence of small fibers): markedly reduced
[5]; Col6a1−/− mice, pargyline treatment
  normalized force of gastrocnemius muscle in vivo: significantly increased
[5]; Col6a1−/− mice, pargyline-treated versus untreated
  voluntary exercise performance (running wheel, daily average distance): significant improvement
[5]; gastrocnemius fibers of pargyline-treated Col6a1−/− mice, maximal calcium activation
  contractile impairment (isometric tension of single-skinned fibers): disappeared
[6]; WT-veh = 100.0, mdx-veh 119.3 ± 1.3, in %
  ROS formation, Quadriceps: 102.9 ± 1.5
[6]; WT-veh = 100.0, mdx-veh 127.8 ± 9.0
  ROS formation, Gastrocnemius: 105.6 ± 2.2
[7]
  ROS formation, Gastrocnemius: 102.8 ± 2.8
  ROS formation, Quadriceps: 96.9 ± 6.2
[8]
  oxidative modifications (Tm oxidation, DCB): significantly decreased
[9]; diaphragm sections
  number of TUNEL-positive nuclei (apoptosis): significantly lower incidence
[9]; gastrocnemius muscle
  myofiber CSA fiber area distribution: normalized the fiber area distribution
[9]
  tissue inflammation in skeletal muscles (H&E): reduce tissue inflammation
[10]
  susceptibility to oxidative stress / mitochondrial ROS (Mitotracker Red): reduced
